In patent publication US11485742B2, “2-azaspiro[3.4]octane derivatives as M4 agonists” (NOVARTIS AG, priority 2019, dated 2022):

Columns and labels:
[1] = biological target: T1, human cloned CHRM4 receptor (Homo sapiens, UniProt P08173); assay: CHRM4 Ca++ Flux Assay (M4_CHO cells, agonist mode); assay type: cell-based; details: for Emax / M4 FDSS PA %: Percent Activity (PA); for Emax: read-out: M4 FDSS PA %; for EC50: geometric mean if tested more than once, read-out: M4 FDSS EC50
T1 construct: expressed in transfected cells; host or cells: CHO-K1 (M4_CHO)
T1 sequence (P08173 1-479): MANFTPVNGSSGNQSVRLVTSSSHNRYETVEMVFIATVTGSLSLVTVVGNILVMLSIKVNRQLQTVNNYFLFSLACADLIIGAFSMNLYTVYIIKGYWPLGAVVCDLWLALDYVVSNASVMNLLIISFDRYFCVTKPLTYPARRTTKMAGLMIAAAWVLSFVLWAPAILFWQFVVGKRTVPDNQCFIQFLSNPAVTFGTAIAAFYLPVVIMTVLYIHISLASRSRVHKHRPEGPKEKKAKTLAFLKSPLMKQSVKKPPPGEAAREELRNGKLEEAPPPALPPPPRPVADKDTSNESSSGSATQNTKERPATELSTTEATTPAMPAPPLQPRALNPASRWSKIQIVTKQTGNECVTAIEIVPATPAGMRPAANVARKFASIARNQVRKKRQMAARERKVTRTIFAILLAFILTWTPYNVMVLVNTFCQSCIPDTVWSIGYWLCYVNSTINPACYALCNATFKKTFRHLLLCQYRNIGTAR
Protocol: (§1) The above examples were characterized by measuring the intracellular mobilization of Ca^++ ions caused by signaling events mediated by the receptor. The Intra-cellular Calcium flux levels were captured by the highly sensitive Ca^++ indicator, Calcium Assay Kit (BD Biosciences; Catalog Number 640178. The fluorescent activity from all receptors were monitored by the fluorescent imager, FDSS 7000EX (Hamamatsu) over a span of 3 minutes. The change in Calcium flux was readily captured upon activation with the muscarinic orthosteric agonist, Carbachol.
CHO-K1 cells stably expressing the human cloned CHRM4 receptor (M4_CHO cells) were grown and maintained in a monolayer culture with F12/HAM (Life Technologies) supplemented with 10% Fetal Bovine Serum, 1X Pen-Strep, and 0.4 mg/mL Geneticin in a humidified atmosphere (5% CO2) at 37° C. The cultures were grown to 80-90% confluency in T150 flasks (Corning) and washed with 1×DPBS then lifted with 0.05% Trypsin (Life Technologies). The cells were harvested in growth media then spun (1K rpm, 3 minutes) and cryopreserved using Recovery Cell Culture Freezing Media (Gibco Technologies). Cells were stored in liquid nitrogen and thawed a day before the assay.
Prior to the day of the assay, stable M4_CHO cells were thawed and plated on 384 well black walled clear bottom TC treated plates (Greiner Cat #781091) at 12K cells/well using F12/HAM Media supplemented with 10% FBS (Life Technologies) and kept overnight in a humidified atmosphere (5% CO2) at 37° C. The next day, cells were loaded with 20 μL Ca^++ dye (BD Biosciences) using Loading Buffer (HBSS +Ca/+Mg, 20 mM HEPES, 2.5 mM Probenecid) and placed back in cell incubator for a minimum of 1 hour. After incubation, the dye was replaced with 45 μL Assay Buffer (HBSS −Ca/−Mg, 20 mM HEPES, 2.5 mM Probenecid) supplemented with 20 μM ATP (Sigma Aldrich) and kept at room temperature in the dark for 60 minutes before running on a cell imager. The FDSS 7000EX (Hamamatsu) was used to capture Ca^++ traces for a span of 3 minutes from cells treated with 11 point dose of compound in triplicate in order to generate dose response curves in agonist mode. All compounds were serially diluted in DMSO then prepared in Assay Buffer for Ca^++ flux studies. The dose response curves were generated from the average of triplicate wells obtained from each data point and used a non-linear regression of four parameter dose response algorithm. The Percent Activity (PA) was measured to EC100 of Carbachol.
(§2) If an Example was tested more than once in an assay, then the values below represent the geometric mean of the results from each independent experiment.

[2] = biological target: T2, Cloned human M1 receptor (CHRM1) (Homo sapiens, UniProt P11229); assay: CHRM1 Ca++ Flux Assay (HEK293 M1 cells, agonist mode); assay type: cell-based; details: for Emax / M1 FDSS PA %: Percent Activity (PA); for Emax: read-out: M1 FDSS PA %; for EC50: geometric mean if tested more than once, read-out: M1 FDSS EC50
T2 construct: expressed in transfected cells; host or cells: HEK293
T2 sequence (P11229 1-460): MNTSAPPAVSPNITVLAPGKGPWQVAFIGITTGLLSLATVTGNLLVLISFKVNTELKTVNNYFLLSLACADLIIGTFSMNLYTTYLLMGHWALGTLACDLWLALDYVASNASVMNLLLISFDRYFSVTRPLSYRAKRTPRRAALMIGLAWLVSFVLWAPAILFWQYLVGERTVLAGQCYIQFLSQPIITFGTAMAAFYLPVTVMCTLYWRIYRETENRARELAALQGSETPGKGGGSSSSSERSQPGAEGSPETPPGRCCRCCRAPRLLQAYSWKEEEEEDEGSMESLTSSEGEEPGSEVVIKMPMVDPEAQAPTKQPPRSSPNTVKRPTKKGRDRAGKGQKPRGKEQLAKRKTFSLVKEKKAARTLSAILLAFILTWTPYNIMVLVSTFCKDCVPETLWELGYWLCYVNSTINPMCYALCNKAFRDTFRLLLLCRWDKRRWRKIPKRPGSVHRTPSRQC
Protocol: as §1
Cloned human M1 receptor (CHRM1) was stably expressed in HEK293 cells and were grown and maintained in a monolayer culture with DMEM/High Glucose (Life Technologies) supplemented with 10% Fetal Bovine Serum, 1×Pen-Strep, and 0.5 mg/mL Geneticin in a humidified atmosphere (5% CO2) at 37° C. The cultures were grown to 90% confluency in T150 flasks (Corning) and washed with 1×DPBS and lifted with 0.05% Trypsin (Life Technologies). The cells were then spun (1K rpm, 3 minutes) and frozen using Recovery Cell Culture Freezing Media (Gibco Technologies). Cells were stored in liquid nitrogen and thawed a day before the assay.
Prior to the day of the assay, stable HEK293 M1 cells were thawed and plated on 384 well black walled clear bottom TC treated plates (Greiner Cat #781091) at 25K cells/well with DMEM/High Glucose supplemented with 10% FBS (Hyclone) Pen-Strep (Life Technologies) and kept overnight in a humidified atmosphere (5% CO2) at 37° C. The following day, cells were loaded with 20 uL Ca^++ dye (BD Biosciences) using Loading Buffer (HBSS +Ca/+Mg, 20 mM HEPES) and placed back in cell incubator for a minimum of 1 hour. The dye was replaced with 45 μL Assay Buffer (HBSS −Ca/−Mg, 20 mM HEPES) and kept at room temperature prior to running on cell imager. Compounds were prepared in Assay Buffer and 5 uL was added to the cells. The FDSS 7000EX (Hamamatsu) was used to acquire Ca++ traces for 3 minutes from cells treated with 11 point dose in triplicate in order to generate dose response curves in agonist mode. All compounds were serially diluted in DMSO then prepared in Assay Buffer for Ca^++ flux studies. The dose response curves were generated from the average of triplicate wells obtained from each data point and used a non-linear regression of four parameter dose response algorithm. The Percent Activity (PA) was measured to EC100 of Carbachol.
as §2

| Compound | Emax [1] [%] | EC50 [1] [nM] | Emax [2] [%] | EC50 [2] [nM] | M4 FDSS PA % [1] [%] | M1 FDSS PA % [2] [%] |
| --- | --- | --- | --- | --- | --- | --- |
| CC(C)(O)COc1ccc(F)cc1C1CCN([C@@H]2COC3(C2)CN(c2nncs2)C3)CC1 [Example 5U, (S)-1-(2-(1-(2-(1,3,4-thiadiazol-2-yl)-5-oxa-2-azaspiro[3.4]octan-7-yl)piperidin-4-yl)-4-fluorophenoxy)-2-methylpropan-2-ol] | 67 | 238 | 75 | 2440 |  |  |
| COc1ccccc1C1CCN([C@@H]2COC3(C2)CN(c2ncco2)C3)CC1 [Example 4N, (S)-7-(4-(2-methoxyphenyl)piperidin-1-yl)-2-(oxazol-2-yl)-5-oxa-2-azaspiro[3.4]octane] | 74 | 93 | 64 | 384 |  |  |
| COc1cc(F)ccc1C1CCN([C@@H]2COC3(C2)CN(c2nncs2)C3)CC1 [Example 5T, (S)-7-(4-(4-fluoro-2-methoxyphenyl)piperidin-1-yl)-2-(1,3,4-thiadiazol-2-yl)-5-oxa-2-azaspiro[3.4]octane] | 61 | 208 | 57 | 1790 |  |  |
| CC(C)(O)[C@H]1C[C@H](Oc2ccc(F)cc2C2CCN([C@@H]3COC4(C3)CN(c3nnco3)C4)CC2)C1 (single isomer, unassigned) [Example 2V, 2-((1S,3r)-3-(2-(1-((S)-2-(1,3,4-oxadiazol-2-yl)-5-oxa-2-azaspiro[3.4]octan-7-yl)piperidin-4-yl)-4-fluorophenoxy)cyclobutyl)propan-2-ol or 2-((1R,3s)-3-(2-(1-((S)-2-(1,3,4-oxadiazol-2-yl)-5-oxa-2-azaspiro[3.4]octan-7-yl)piperidin-4-yl)-4-fluorophenoxy)cyclobutyl)propan-2-ol] |  | 94 |  | 1650 | 75 | 31 |
| Fc1ccc(O[C@H]2CCCOC2)c(C2CCN([C@@H]3COC4(C3)CN(c3nnco3)C4)CC2)c1 (single isomer, unassigned) [Example 2Q, (S)-7-(4-(5-fluoro-2-(((S)-tetrahydro-2H-pyran-3-yl)oxy)phenyl)piperidin-1-yl)-2-(1,3,4-oxadiazol-2-yl)-5-oxa-2-azaspiro[3.4]octane or (S)-7-(4-(5-fluoro-2-(((R)-tetrahydro-2H-pyran-3-yl)oxy)phenyl)piperidin-1-yl)-2-(1,3,4-oxadiazol-2-yl)-5-oxa-2-azaspiro[3.4]octane] |  | 130 |  | 2020 | 81 | 80 |

Molecules with a lower EC50 [1], results first:

| Emax [1] [%] | EC50 [1] [nM] | Emax [2] [%] | EC50 [2] [nM] | M4 FDSS PA % [1] [%] | M1 FDSS PA % [2] [%] | Compound |
| --- | --- | --- | --- | --- | --- | --- |
| 77 | 7 | 95 | 741 |  |  | Fc1ccc(O[C@@H]2CCOC2)c(C2CCN([C@@H]3COC4(C3)CN(c3ncco3)C4)CC2)c1 [Example 4D, (S)-7-(4-(5-fluoro-2-(((R)-tetrahydrofuran-3-yl)oxy)phenyl)piperidin-1-yl)-2-(oxazol-2-yl)-5-oxa-2-azaspiro[3.4]octane] |
| 80 | 21 | 69 | 609 |  |  | Fc1ccc(O[C@@H]2CCOC2)c(C2CCN([C@@H]3COC4(C3)CN(c3nnco3)C4)CC2)c1 [Example 1D, (S)-7-(4-(5-fluoro-2-(((R)-tetrahydrofuran-3-yl)oxy)phenyl)piperidin-1-yl)-2-(1,3,4-oxadiazol-2-yl)-5-oxa-2-azaspiro[3.4]octane] |
|  | 10 |  | 2410 | 83.2 | 84 | O[C@H]1CC[C@@H](c2ccc(F)cc2C2CCN([C@@H]3COC4(C3)CN(c3nnco3)C4)CC2)CC1 (single isomer, unassigned) [Example 3H, (1R,4s)-4-(2-(1-((S)-2-(1,3,4-oxadiazol-2-yl)-5-oxa-2-azaspiro[3.4]octan-7-yl)piperidin-4-yl)-4-fluorophenyl)cyclohexan-1-ol or (1S,4r)-4-(2-(1-((S)-2-(1,3,4-oxadiazol-2-yl)-5-oxa-2-azaspiro[3.4]octan-7-yl)piperidin-4-yl)-4-fluorophenyl)cyclohexan-1-ol] |
| 82 | 86 | 49 | 2810 |  |  | c1ccc(C2CCN([C@@H]3COC4(C3)CN(c3ncco3)C4)CC2)c(OC2CC3(COC3)C2)c1 [Example 4M, (S)-7-(4-(2-((2-oxaspiro[3.3]heptan-6-yl)oxy)phenyl)piperidin-1-yl)-2-(oxazol-2-yl)-5-oxa-2-azaspiro[3.4]octane] |
| 71 | 20 | 69 | 775 |  |  | Fc1ccc(OC[C@@H]2CCOC2)c(C2CCN([C@@H]3COC4(C3)CN(c3nncs3)C4)CC2)c1 [Example 5I, (S)-7-(4-(5-fluoro-2-(((R)-tetrahydrofuran-3-yl)methoxy)phenyl)piperidin-1-yl)-2-(1,3,4-thiadiazol-2-yl)-5-oxa-2-azaspiro[3.4]octane] |
| 84 | 31 | 77 | 973 |  |  | Fc1ccc(OC2CCOCC2)c(C2CCN([C@@H]3COC4(C3)CN(c3nnco3)C4)CC2)c1 [Example 1G, (S)-7-(4-(5-fluoro-2-((tetrahydro-2H-pyran-4-yl)oxy)phenyl)piperidin-1-yl)-2-(1,3,4-oxadiazol-2-yl)-5-oxa-2-azaspiro[3.4]octane] |
| 99 | 15 | 67 | 432 |  |  | Fc1ccc(O[C@@H]2CCOC2)c(C2CCN([C@@H]3COC4(C3)CN(c3nncs3)C4)CC2)c1 [Example 5H, (S)-7-(4-(5-fluoro-2-(((R)-tetrahydrofuran-3-yl)oxy)phenyl)piperidin-1-yl)-2-(1,3,4-thiadiazol-2-yl)-5-oxa-2-azaspiro[3.4]octane] |
